Literature values, collected in PMC12084609, “Structural insights into small-molecule agonist recognition and activation of complement receptor C3aR” (The EMBO Journal, 2025).

System: C3aR R161A
Details: quoted by Referee #2; ref https://doi.org/10.1038/s41589-023-01339-w; cited from earlier work

## C3a: anaphylatoxin C3a, natural peptide ligand of C3aR (a 77-amino acid peptide), Sigma-Aldrich
  decrease of potency toward C3aR by R161A: ~ 1000 fold
